Consider seven compounds from ChEMBL document CHEMBL1921670, “Discovery and optimization of indole and 7-azaindoles as Rho kinase (ROCK) inhibitors (part-II)” (Bioorg Med Chem Lett, 2011).

Molecules are shown by their SMILES.

Rho-associated protein kinase 1, sequence (Q13464 whole entry): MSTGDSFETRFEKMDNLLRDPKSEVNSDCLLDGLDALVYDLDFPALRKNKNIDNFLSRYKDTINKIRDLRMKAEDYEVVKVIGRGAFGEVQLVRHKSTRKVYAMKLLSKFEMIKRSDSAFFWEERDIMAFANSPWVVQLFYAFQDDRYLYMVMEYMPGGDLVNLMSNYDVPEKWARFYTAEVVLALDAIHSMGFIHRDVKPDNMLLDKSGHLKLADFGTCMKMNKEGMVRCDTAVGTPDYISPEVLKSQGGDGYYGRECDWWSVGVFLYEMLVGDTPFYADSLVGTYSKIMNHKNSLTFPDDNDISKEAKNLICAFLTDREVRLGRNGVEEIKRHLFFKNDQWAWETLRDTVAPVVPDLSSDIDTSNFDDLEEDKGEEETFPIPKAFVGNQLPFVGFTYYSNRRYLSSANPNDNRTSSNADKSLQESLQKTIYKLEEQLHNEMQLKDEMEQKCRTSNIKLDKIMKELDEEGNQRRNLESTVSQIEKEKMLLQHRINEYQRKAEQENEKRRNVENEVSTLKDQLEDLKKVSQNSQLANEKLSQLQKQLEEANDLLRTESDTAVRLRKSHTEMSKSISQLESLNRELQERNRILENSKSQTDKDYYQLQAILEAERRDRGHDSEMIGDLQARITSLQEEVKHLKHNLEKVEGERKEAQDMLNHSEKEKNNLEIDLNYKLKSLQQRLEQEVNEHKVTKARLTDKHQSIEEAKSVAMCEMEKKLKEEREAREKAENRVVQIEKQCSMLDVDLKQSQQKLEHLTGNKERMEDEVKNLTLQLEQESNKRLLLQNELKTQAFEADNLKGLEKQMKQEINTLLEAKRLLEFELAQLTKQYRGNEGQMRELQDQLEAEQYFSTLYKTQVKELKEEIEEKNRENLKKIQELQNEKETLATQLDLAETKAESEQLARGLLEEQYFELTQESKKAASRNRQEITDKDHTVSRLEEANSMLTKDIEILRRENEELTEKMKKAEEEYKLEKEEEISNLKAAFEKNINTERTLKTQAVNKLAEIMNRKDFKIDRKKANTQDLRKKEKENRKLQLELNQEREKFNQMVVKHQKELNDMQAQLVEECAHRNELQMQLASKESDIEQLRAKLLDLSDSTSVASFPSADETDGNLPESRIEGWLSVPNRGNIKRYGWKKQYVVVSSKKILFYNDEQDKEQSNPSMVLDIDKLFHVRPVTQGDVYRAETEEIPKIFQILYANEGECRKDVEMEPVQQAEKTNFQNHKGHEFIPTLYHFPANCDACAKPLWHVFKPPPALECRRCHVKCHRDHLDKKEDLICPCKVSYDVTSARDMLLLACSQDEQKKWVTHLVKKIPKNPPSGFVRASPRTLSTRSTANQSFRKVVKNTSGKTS

One data set deals with CYP2D6 (Homo sapiens, UniProt P10635). Briefly: Inhibition of CYP2D6 at 10 uM. The class given is ADME.
CYP2D6, sequence (P10635 whole entry): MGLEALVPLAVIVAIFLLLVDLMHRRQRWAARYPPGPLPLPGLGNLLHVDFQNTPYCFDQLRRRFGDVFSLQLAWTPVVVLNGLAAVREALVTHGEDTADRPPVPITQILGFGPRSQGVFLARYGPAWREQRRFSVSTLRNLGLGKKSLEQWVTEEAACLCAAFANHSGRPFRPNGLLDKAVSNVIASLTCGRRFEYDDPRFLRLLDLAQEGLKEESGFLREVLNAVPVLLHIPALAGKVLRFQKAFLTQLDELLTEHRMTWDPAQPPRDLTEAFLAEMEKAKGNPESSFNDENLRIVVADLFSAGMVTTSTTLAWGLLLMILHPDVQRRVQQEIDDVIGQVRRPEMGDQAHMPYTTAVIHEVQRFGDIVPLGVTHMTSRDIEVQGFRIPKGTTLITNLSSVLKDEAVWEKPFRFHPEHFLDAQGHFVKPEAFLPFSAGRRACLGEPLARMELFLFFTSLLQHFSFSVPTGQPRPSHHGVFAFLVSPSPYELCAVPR
The inhibition is the drop in the measured response relative to a control, in per cent. Consider `COc1cccc(CN(CCN2CCCC2)C(=O)c2cc3ccc(-c4cn[nH]c4)nc3[nH]2)c1`, for which the inhibition at 10 µM came out at 52%.
`COc1cccc(CNC(=O)c2[nH]c3cc(-c4cn[nH]c4)ccc3c2CN(C)C)c1`: the inhibition at 10 µM was determined as 48%.
For the compound `COc1cccc(CNC(=O)c2[nH]c3cc(-c4cn[nH]c4)ccc3c2CN2CCN(C)CC2)c1`, the inhibition at 10 µM worked out at 86%.
For `COc1cccc(CN(CCN2CCCC2)C(=O)c2cc3ccc(-c4cn[nH]c4)cc3[nH]2)c1`, the inhibition at 10 µM was 78%.
Take `COc1cccc(CN(C)C(=O)c2c[nH]c3cc(-c4cn[nH]c4)ccc23)c1`: the inhibition at 10 µM is 50%.
Still for that read-out and setting: the result for `COc1cccc(CNC(=O)c2cn(-c3ccccc3)c3cc(-c4cn[nH]c4)ccc23)c1` reads 76%.
On the same count and under the same terms, next, `COc1cccc(CNC(=O)c2[nH]c3nc(-c4cn[nH]c4)ccc3c2CN2CCOCC2)c1`: 28%.

The target of a further data set is CYP2C9 (Homo sapiens, UniProt P11712). Briefly: Inhibition of CYP2C9 at 10 uM. The class given is ADME.
CYP2C9, sequence (P11712 whole entry): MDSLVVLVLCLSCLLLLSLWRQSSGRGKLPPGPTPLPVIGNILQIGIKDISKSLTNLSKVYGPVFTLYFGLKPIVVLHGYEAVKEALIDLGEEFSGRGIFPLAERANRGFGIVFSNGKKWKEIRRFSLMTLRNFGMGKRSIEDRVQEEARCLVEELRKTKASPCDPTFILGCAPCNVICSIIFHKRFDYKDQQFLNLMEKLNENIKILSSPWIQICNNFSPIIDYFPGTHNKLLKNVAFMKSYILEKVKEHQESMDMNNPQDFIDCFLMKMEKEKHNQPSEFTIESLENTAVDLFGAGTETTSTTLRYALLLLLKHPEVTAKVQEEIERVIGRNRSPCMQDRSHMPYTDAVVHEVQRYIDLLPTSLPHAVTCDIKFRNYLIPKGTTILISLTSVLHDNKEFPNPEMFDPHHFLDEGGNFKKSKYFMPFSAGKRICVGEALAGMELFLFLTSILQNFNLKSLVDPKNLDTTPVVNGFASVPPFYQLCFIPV
Regarding `COc1cccc(CN(CCN2CCCC2)C(=O)c2cc3ccc(-c4cn[nH]c4)nc3[nH]2)c1`, the inhibition at 10 µM is 26%.
Same read-out and setting: next, `COc1cccc(CNC(=O)c2[nH]c3cc(-c4cn[nH]c4)ccc3c2CN(C)C)c1`: 27%; `COc1cccc(CNC(=O)c2[nH]c3cc(-c4cn[nH]c4)ccc3c2CN2CCN(C)CC2)c1`: 75%.
As to `COc1cccc(CN(CCN2CCCC2)C(=O)c2cc3ccc(-c4cn[nH]c4)cc3[nH]2)c1`, the inhibition at 10 µM was 65%.
With `COc1cccc(CN(C)C(=O)c2c[nH]c3cc(-c4cn[nH]c4)ccc23)c1`, the inhibition at 10 µM is 94%.
On the same count and under the same terms, the result for `COc1cccc(CNC(=O)c2cn(-c3ccccc3)c3cc(-c4cn[nH]c4)ccc23)c1` reads 96%; that for `COc1cccc(CNC(=O)c2[nH]c3nc(-c4cn[nH]c4)ccc3c2CN2CCOCC2)c1`, 9%.

Tested on in a further data set: not listed separately
Briefly: Inhibition of myosin light chain bisphosphorylation by cell-based assay.
What is called IC50 is the point on the concentration scale where inhibition reaches its midpoint. Low values mean higher potency, high ones lower potency. `COc1cccc(CNC(=O)c2[nH]c3cc(-c4cn[nH]c4)ccc3c2CN2CCN(C)CC2)c1` gave an IC50 of 40 nM. This lies in the double-digit nanomolar range.
The same measure, in the same setting: next, `COc1cccc(CN(CCN2CCCC2)C(=O)c2cc3ccc(-c4cn[nH]c4)cc3[nH]2)c1`: 206 nM.

The target of another data set is CYP3A4 (Homo sapiens, UniProt P08684). The data set is described as follows: Inhibition of CYP3A4 at 10 uM. The class given is ADME.
CYP3A4, sequence (P08684 whole entry): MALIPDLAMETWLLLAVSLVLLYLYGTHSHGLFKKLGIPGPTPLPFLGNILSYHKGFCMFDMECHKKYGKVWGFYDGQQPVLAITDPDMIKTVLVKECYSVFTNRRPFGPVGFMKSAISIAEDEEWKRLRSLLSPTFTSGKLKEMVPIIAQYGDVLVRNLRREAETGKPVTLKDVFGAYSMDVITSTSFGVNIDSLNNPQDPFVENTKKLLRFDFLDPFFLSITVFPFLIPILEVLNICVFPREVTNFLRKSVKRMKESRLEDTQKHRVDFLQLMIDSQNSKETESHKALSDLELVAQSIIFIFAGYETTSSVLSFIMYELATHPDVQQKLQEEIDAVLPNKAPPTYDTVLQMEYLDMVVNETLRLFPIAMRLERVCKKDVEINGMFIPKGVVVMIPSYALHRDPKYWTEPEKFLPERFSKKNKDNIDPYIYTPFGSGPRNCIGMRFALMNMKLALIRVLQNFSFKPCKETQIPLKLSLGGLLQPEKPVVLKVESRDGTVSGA
`COc1cccc(CN(CCN2CCCC2)C(=O)c2cc3ccc(-c4cn[nH]c4)nc3[nH]2)c1`: the inhibition at 10 µM was 43%.
As to `COc1cccc(CNC(=O)c2[nH]c3cc(-c4cn[nH]c4)ccc3c2CN(C)C)c1`, the inhibition at 10 µM stood at 19%.
Still for that read-out and setting: next, `COc1cccc(CNC(=O)c2[nH]c3cc(-c4cn[nH]c4)ccc3c2CN2CCN(C)CC2)c1`: 75%; `COc1cccc(CN(CCN2CCCC2)C(=O)c2cc3ccc(-c4cn[nH]c4)cc3[nH]2)c1`: 59%.
As for `COc1cccc(CN(C)C(=O)c2c[nH]c3cc(-c4cn[nH]c4)ccc23)c1`, the inhibition at 10 µM is 38%.
Consider `COc1cccc(CNC(=O)c2cn(-c3ccccc3)c3cc(-c4cn[nH]c4)ccc23)c1`, for which the inhibition at 10 µM turned out to be 93%.
Take `COc1cccc(CNC(=O)c2[nH]c3nc(-c4cn[nH]c4)ccc3c2CN2CCOCC2)c1`: the inhibition at 10 µM was determined as 46%.

Tested on in a further data set: not listed separately
The data set is described as follows: Inhibition of PKA.
`COc1cccc(CN(CCN2CCCC2)C(=O)c2cc3ccc(-c4cn[nH]c4)nc3[nH]2)c1` returned an IC50 of more than 20000 nM.
Still for that read-out and setting: next, `COc1cccc(CNC(=O)c2[nH]c3cc(-c4cn[nH]c4)ccc3c2CN(C)C)c1`: 1500 nM; `COc1cccc(CNC(=O)c2[nH]c3cc(-c4cn[nH]c4)ccc3c2CN2CCN(C)CC2)c1`: 1300 nM.
Same read-out and setting: the result for `COc1cccc(CN(CCN2CCCC2)C(=O)c2cc3ccc(-c4cn[nH]c4)cc3[nH]2)c1` reads 1640 nM; that for `COc1cccc(CN(C)C(=O)c2c[nH]c3cc(-c4cn[nH]c4)ccc23)c1`, 4300 nM; that for `COc1cccc(CNC(=O)c2[nH]c3nc(-c4cn[nH]c4)ccc3c2CN2CCOCC2)c1`, 6100 nM.

The next data set deals with T1, CYP1A2 (Homo sapiens, UniProt P05177).
T1 sequence (P05177 whole entry): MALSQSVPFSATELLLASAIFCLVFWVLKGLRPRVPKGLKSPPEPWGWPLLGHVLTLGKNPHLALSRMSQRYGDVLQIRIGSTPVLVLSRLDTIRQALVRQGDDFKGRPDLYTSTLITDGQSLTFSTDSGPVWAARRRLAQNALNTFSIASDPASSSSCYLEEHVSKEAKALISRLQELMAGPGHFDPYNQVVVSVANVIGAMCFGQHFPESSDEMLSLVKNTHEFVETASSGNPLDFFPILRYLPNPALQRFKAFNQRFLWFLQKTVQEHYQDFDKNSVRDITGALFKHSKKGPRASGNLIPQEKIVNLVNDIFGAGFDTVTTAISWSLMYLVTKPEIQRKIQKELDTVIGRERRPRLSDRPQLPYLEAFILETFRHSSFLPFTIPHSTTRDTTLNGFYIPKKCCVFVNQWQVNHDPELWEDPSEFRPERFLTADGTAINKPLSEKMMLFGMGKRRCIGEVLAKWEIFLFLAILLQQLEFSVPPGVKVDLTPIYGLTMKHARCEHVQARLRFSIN
Briefly: Inhibition of CYP1A2 at 10 uM. The class given is ADME.
Turning to `COc1cccc(CN(CCN2CCCC2)C(=O)c2cc3ccc(-c4cn[nH]c4)nc3[nH]2)c1`, the inhibition at 10 µM amounted to 12%.
Same read-out and setting: the result for `COc1cccc(CNC(=O)c2[nH]c3cc(-c4cn[nH]c4)ccc3c2CN(C)C)c1` reads 18%.
For `COc1cccc(CNC(=O)c2[nH]c3cc(-c4cn[nH]c4)ccc3c2CN2CCN(C)CC2)c1`, the inhibition at 10 µM was 62%.
Same read-out and setting: next, `COc1cccc(CN(CCN2CCCC2)C(=O)c2cc3ccc(-c4cn[nH]c4)cc3[nH]2)c1`: -2%; `COc1cccc(CN(C)C(=O)c2c[nH]c3cc(-c4cn[nH]c4)ccc23)c1`: 70%.
As to `COc1cccc(CNC(=O)c2cn(-c3ccccc3)c3cc(-c4cn[nH]c4)ccc23)c1`, the inhibition at 10 µM came out at 36%.
On to `COc1cccc(CNC(=O)c2[nH]c3nc(-c4cn[nH]c4)ccc3c2CN2CCOCC2)c1`, for which the inhibition at 10 µM came out at 7%.

The target in the next data set is Rho-associated protein kinase 2 (Homo sapiens, UniProt O75116). The data set is described as follows: Inhibition of ROCK2.
Rho-associated protein kinase 2, sequence (O75116 whole entry): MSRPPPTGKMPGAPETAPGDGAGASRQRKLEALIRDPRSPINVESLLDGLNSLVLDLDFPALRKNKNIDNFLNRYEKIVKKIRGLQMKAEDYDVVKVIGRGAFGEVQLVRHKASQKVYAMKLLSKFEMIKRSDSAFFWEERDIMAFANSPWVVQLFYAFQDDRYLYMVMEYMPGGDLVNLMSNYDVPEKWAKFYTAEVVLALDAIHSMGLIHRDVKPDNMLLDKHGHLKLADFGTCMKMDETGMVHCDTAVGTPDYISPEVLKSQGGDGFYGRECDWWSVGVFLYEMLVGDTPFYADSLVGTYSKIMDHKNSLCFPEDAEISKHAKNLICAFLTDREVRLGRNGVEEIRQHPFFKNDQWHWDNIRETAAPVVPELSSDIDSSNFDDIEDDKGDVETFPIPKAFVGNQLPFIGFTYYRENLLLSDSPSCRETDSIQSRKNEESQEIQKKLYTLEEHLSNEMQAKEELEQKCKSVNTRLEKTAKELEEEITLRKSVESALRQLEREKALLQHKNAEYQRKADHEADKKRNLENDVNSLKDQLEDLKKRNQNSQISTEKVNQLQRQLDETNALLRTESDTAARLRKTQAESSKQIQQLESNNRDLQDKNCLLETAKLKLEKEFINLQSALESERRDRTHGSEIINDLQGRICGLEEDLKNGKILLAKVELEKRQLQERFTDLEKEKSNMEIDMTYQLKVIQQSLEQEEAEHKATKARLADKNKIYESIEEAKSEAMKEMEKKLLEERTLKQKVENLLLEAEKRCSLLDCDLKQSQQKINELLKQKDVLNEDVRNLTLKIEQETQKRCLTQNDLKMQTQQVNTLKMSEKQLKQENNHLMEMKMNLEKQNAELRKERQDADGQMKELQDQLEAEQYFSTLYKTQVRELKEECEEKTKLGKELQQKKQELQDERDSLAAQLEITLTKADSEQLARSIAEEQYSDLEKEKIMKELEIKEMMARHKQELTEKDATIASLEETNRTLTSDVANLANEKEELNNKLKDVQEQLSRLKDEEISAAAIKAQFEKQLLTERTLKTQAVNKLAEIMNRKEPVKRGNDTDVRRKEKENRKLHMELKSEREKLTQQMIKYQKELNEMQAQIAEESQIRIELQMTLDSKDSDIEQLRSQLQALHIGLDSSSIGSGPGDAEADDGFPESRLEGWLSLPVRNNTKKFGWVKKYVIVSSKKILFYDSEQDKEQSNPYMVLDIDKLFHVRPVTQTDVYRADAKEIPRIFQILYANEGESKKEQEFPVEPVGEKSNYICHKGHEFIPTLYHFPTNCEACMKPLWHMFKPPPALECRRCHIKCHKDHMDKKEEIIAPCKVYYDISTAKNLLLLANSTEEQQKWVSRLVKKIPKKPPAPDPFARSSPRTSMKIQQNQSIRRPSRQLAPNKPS
For the compound `COc1cccc(CN(CCN2CCCC2)C(=O)c2cc3ccc(-c4cn[nH]c4)nc3[nH]2)c1`, inhibition was half-maximal at 18 nM (IC50).
The same measure, in the same setting: next, `COc1cccc(CNC(=O)c2[nH]c3cc(-c4cn[nH]c4)ccc3c2CN(C)C)c1`: 9 nM; `COc1cccc(CNC(=O)c2[nH]c3cc(-c4cn[nH]c4)ccc3c2CN2CCN(C)CC2)c1`: less than 1 nM; `COc1cccc(CN(CCN2CCCC2)C(=O)c2cc3ccc(-c4cn[nH]c4)cc3[nH]2)c1`: 11 nM.
On the same count and under the same terms, next, `COc1cccc(CN(C)C(=O)c2c[nH]c3cc(-c4cn[nH]c4)ccc23)c1`: 2 nM; `COc1cccc(CNC(=O)c2cn(-c3ccccc3)c3cc(-c4cn[nH]c4)ccc23)c1`: 5 nM; `COc1cccc(CNC(=O)c2[nH]c3nc(-c4cn[nH]c4)ccc3c2CN2CCOCC2)c1`: 16 nM.

Another data set concerns the target Rho-associated protein kinase 1 (Homo sapiens, UniProt Q13464). Briefly: Inhibition of ROCK1.
In turn, `COc1cccc(CN(CCN2CCCC2)C(=O)c2cc3ccc(-c4cn[nH]c4)nc3[nH]2)c1` returned an IC50 of 121 nM.
The same measure, in the same setting: next, `COc1cccc(CNC(=O)c2[nH]c3cc(-c4cn[nH]c4)ccc3c2CN(C)C)c1`: 34 nM; `COc1cccc(CNC(=O)c2[nH]c3cc(-c4cn[nH]c4)ccc3c2CN2CCN(C)CC2)c1`: 6 nM; `COc1cccc(CN(CCN2CCCC2)C(=O)c2cc3ccc(-c4cn[nH]c4)cc3[nH]2)c1`: 62 nM.
The same measure, in the same setting: the result for `COc1cccc(CN(C)C(=O)c2c[nH]c3cc(-c4cn[nH]c4)ccc23)c1` reads 19 nM; that for `COc1cccc(CNC(=O)c2cn(-c3ccccc3)c3cc(-c4cn[nH]c4)ccc23)c1`, 21 nM.
The same measure, in the same setting: next, `COc1cccc(CNC(=O)c2[nH]c3nc(-c4cn[nH]c4)ccc3c2CN2CCOCC2)c1`: 91 nM.

Tested on in another data set: not listed separately
The data set is described as follows: Half life in human liver microsomes. The format is ADME, Microsome.
The term half-life denotes the time needed for the level to fall by half in the phase considered. A low value points to rapid decline. Compound `COc1cccc(CN(CCN2CCCC2)C(=O)c2cc3ccc(-c4cn[nH]c4)nc3[nH]2)c1` came in with a half-life of 21 min.
Same read-out and setting: the result for `COc1cccc(CNC(=O)c2[nH]c3cc(-c4cn[nH]c4)ccc3c2CN(C)C)c1` reads 68 min; that for `COc1cccc(CNC(=O)c2[nH]c3cc(-c4cn[nH]c4)ccc3c2CN2CCN(C)CC2)c1`, 1 min; that for `COc1cccc(CN(CCN2CCCC2)C(=O)c2cc3ccc(-c4cn[nH]c4)cc3[nH]2)c1`, 49 min.
The same measure, in the same setting: the result for `COc1cccc(CN(C)C(=O)c2c[nH]c3cc(-c4cn[nH]c4)ccc23)c1` reads 13 min; that for `COc1cccc(CNC(=O)c2cn(-c3ccccc3)c3cc(-c4cn[nH]c4)ccc23)c1`, 10 min; that for `COc1cccc(CNC(=O)c2[nH]c3nc(-c4cn[nH]c4)ccc3c2CN2CCOCC2)c1`, 4 min.
